The structures appear in SMILES notation. Bridge positions count the residues as written; N and C are the ends. Square brackets hold non-standard residues; d marks the D form. Peptide text beside a SMILES is read from it. Hyp = O=C(O)[C@@H]1C[C@@H](O)CN1 A value given as a limit tells only on which side of the number the result lay.

The nature of data set [1]: Physical stability of peptide analogues (Thioflavin T fibrillation). In kind it is physicochemical. As to conditions: maximum ThT signal normalized between hAMY maximum and buffer background; 40° C., shaking, four days; pH 7 per table title. In a few lines: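 ThT fluorescence (450 nm excitation, 480 nm emission; 4 μM dye) was read every 10 min over four days at 40° C under 700 rpm shaking stress, after 1 h in pH 4 acetate or pH 7 phosphate (50 mM). Peak smoothed signal expressed as percent, scaled between buffer background and hAMY maximum.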

A further data set deals with hAM1 receptor (Homo sapiens, UniProt O60895+Q16602). The data set is described as follows: cAMP assay for in vitro receptor activation, hAM1-R. The following applies: cAMP assay, hAM1 receptor; read-out: hAM1R EC50. In kind it is cell-based. In a few lines:
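Receptor activation, read as cAMP, was assessed in thawed cells of a monoclonal hAM1-overexpressing stable line, plated at 8000 cells/well in DPBS supplemented with 0.05% casein and 0.5 mM IBMX.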
(Cyclic AMP is a second messenger, typically raised through Gs and lowered through Gi signalling.)

The next data set concerns the target T1, hAMY3 receptor (Homo sapiens, UniProt O60896+P30988).
T1 sequence (P30988 25-474): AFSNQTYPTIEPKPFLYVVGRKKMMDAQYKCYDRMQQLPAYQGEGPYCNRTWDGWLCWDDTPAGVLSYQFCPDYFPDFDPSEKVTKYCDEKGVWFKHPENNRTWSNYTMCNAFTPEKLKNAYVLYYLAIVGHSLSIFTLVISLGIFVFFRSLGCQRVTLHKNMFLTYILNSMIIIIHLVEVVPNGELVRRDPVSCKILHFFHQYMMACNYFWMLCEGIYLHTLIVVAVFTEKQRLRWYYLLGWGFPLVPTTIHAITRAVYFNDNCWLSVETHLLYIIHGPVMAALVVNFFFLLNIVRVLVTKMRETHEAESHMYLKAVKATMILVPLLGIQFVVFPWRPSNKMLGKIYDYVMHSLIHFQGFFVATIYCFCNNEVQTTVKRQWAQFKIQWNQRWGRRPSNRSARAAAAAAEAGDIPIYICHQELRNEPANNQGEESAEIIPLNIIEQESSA
T1 sequence (O60896 24-148 partner): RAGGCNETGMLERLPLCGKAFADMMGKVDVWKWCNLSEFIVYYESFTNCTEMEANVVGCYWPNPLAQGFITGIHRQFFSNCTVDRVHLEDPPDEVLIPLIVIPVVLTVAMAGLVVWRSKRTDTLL
The data set is described as follows: cAMP assay for in vitro receptor activation, hAMY3-R. In kind it is cell-based. As to conditions: cAMP assay, hAMY3 receptor; read-out: hAMY3R EC50. The method in brief: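 Receptor activation was measured as cAMP accumulation in a monoclonal cell line stably overexpressing hAMY3. Stimulation with graded doses lasted 30 min at room temperature in the presence of 0.5 mM IBMX, with human amylin as positive control.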

hAM1 receptor, sequence (Q16602 23-461): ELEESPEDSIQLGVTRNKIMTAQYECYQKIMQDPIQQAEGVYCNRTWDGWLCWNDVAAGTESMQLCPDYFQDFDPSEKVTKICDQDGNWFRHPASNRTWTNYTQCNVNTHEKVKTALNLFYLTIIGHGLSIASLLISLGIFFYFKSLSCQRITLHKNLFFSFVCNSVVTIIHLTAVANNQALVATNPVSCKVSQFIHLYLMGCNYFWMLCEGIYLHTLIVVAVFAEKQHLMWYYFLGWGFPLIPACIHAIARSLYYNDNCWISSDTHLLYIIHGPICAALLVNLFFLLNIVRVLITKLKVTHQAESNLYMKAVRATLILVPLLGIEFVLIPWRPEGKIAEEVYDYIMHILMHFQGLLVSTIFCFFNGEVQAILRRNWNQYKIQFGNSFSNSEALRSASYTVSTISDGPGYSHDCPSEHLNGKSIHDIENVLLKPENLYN
hAM1 receptor, sequence (O60895 43-175 partner): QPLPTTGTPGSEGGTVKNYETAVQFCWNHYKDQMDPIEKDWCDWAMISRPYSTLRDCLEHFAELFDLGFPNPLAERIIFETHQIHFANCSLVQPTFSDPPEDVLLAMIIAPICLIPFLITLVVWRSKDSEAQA

What is called EC50 is the concentration giving half of the maximal effect. In the case of `CC[C@H](C)[C@H](NC(=O)[C@H](CCCCN)NC(=O)[C@@H](NC(=O)[C@H](CCCNC(=N)N)NC(=O)[C@@H]1CCCN1C(=O)[C@H](C)NC(=O)[C@@H](NC(=O)[C@H](CC(N)=O)NC(=O)[C@H](CC(=O)O)NC(=O)[C@H](CCCCN)NC(=O)[C@H](CC(=O)O)NC(=O)[C@H](CCCCN)NC(=O)[C@H](CC(=O)O)NC(=O)[C@@H](NC(=O)[C@H](Cc1ccccc1)NC(=O)[C@H](CCC(N)=O)NC(=O)[C@H](Cc1ccc(O)cc1)NC(=O)[C@@H](NC(=O)[C@H](CCC(N)=O)NC(=O)[C@H](Cc1c[nH]cn1)NC(=O)[C@H](C)NC(=O)[C@H](CC(C)C)NC(=O)[C@H](CCCNC(=N)N)NC(=O)[C@H](CCC(N)=O)NC(=O)[C@@H](NC(=O)[C@@H](NC(=O)[C@@H]1CSSC[C@H](NC(=O)CN)C(=O)N[C@@H](CCCNC(=N)N)C(=O)N[C@@H]([C@@H](C)O)C(=O)NCC(=O)N[C@@H]([C@@H](C)O)C(=O)N1)[C@@H](C)O)C(C)C)[C@@H](C)CC)[C@@H](C)O)C(C)C)[C@@H](C)O)C(=O)NCC(=O)N1CCC[C@H]1C(=O)N[C@@H](CC(N)=O)C(=O)NCC(=O)N1C[C@H](O)C[C@H]1C(N)=O` [compound 115] (H-GCRTGTCTVQRLAHQIYQFTDKDKDNVAPRTKIGPNG[Hyp]-NH2; disulfide 2-7; N-terminus assumed), the “Max ThT signal (%)” value in data set [1] worked out at 2.500%. Also, at hAM1 receptor, the EC50 was determined as 130 nM.
Taken in the same sequence, the figures for `CC[C@H](C)[C@H](NC(=O)[C@H](CCC(N)=O)NC(=O)[C@H](Cc1c[nH]cn1)NC(=O)[C@H](C)NC(=O)[C@H](CC(C)C)NC(=O)[C@H](CCCNC(=N)N)NC(=O)[C@H](CCC(N)=O)NC(=O)[C@@H](NC(=O)[C@@H](NC(=O)[C@@H]1CSSC[C@H](NC(=O)CN)C(=O)N[C@@H](CCCNC(=N)N)C(=O)N[C@@H](Cc2ccccc2)C(=O)NCC(=O)N[C@@H]([C@@H](C)O)C(=O)N1)[C@@H](C)O)C(C)C)C(=O)N[C@@H](Cc1ccc(O)cc1)C(=O)N[C@@H](CCC(N)=O)C(=O)N[C@@H](Cc1ccccc1)C(=O)N[C@H](C(=O)N[C@@H](CC(=O)O)C(=O)N[C@@H](CCCCN)C(=O)N[C@@H](CC(=O)O)C(=O)N[C@@H](CCCCN)C(=O)N[C@@H](CC(=O)O)C(=O)N[C@@H](CC(N)=O)C(=O)N[C@H](C(=O)N[C@@H](C)C(=O)N1CCC[C@H]1C(=O)N[C@@H](CCCNC(=N)N)C(=O)N[C@@H](CO)C(=O)N[C@@H](CCCCN)C(=O)N[C@H](C(=O)N[C@@H](CO)C(=O)N1CCC[C@H]1C(=O)N[C@@H](CCC(N)=O)C(=O)N[C@H](C(=O)N1C[C@H](O)C[C@H]1C(N)=O)[C@@H](C)O)[C@@H](C)CC)C(C)C)[C@@H](C)O` [compound 168] (H-GCRFGTCTVQRLAHQIYQFTDKDKDNVAPRSKISPQT[Hyp]-NH2; disulfide 2-7; N-terminus assumed) were 12.500% and > 5000 nM.
On the same counts, the results for `CC[C@H](C)[C@H](NC(=O)[C@H](CCC(N)=O)NC(=O)[C@H](Cc1c[nH]cn1)NC(=O)[C@H](C)NC(=O)[C@H](CC(C)C)NC(=O)[C@H](CCCNC(=N)N)NC(=O)[C@H](CCC(N)=O)NC(=O)[C@@H](NC(=O)[C@@H](NC(=O)[C@@H]1CSSC[C@H](NC(=O)CN)C(=O)N[C@@H](CCCNC(=N)N)C(=O)N[C@@H](CCSC)C(=O)NCC(=O)N[C@@H]([C@@H](C)O)C(=O)N1)[C@@H](C)O)C(C)C)C(=O)N[C@@H](Cc1ccc(O)cc1)C(=O)N[C@@H](CCC(N)=O)C(=O)N[C@@H](Cc1ccccc1)C(=O)N[C@H](C(=O)N[C@@H](CC(=O)O)C(=O)N[C@@H](CCCCN)C(=O)N[C@@H](Cc1ccccc1)C(=O)N[C@@H](CCCCN)C(=O)N[C@@H](CC(=O)O)C(=O)N[C@@H](CC(N)=O)C(=O)N[C@H](C(=O)N[C@@H](C)C(=O)N1CCC[C@H]1C(=O)N[C@@H](CCCNC(=N)N)C(=O)N[C@@H](CO)C(=O)N[C@@H](CCCCN)C(=O)N[C@H](C(=O)N[C@@H](CO)C(=O)N1CCC[C@H]1C(=O)N[C@@H](CCC(N)=O)C(=O)N[C@H](C(=O)N1C[C@H](O)C[C@H]1C(N)=O)[C@@H](C)O)[C@@H](C)CC)C(C)C)[C@@H](C)O` [compound 173] (H-GCRMGTCTVQRLAHQIYQFTDKFKDNVAPRSKISPQT[Hyp]-NH2; disulfide 2-7; N-terminus assumed) are 4.400% and > 5000 nM.
On the same counts, the results for `CC[C@H](C)[C@H](NC(=O)[C@H](CCC(N)=O)NC(=O)[C@H](Cc1c[nH]cn1)NC(=O)[C@H](C)NC(=O)[C@H](CC(C)C)NC(=O)[C@H](CCCNC(=N)N)NC(=O)[C@H](CCC(N)=O)NC(=O)[C@@H](NC(=O)[C@@H](NC(=O)[C@@H]1CSSC[C@H](NC(=O)CN)C(=O)N[C@@H](CCCNC(=N)N)C(=O)N[C@@H]([C@@H](C)O)C(=O)NCC(=O)N[C@@H]([C@@H](C)O)C(=O)N1)[C@@H](C)O)C(C)C)C(=O)N[C@@H](Cc1c[nH]cn1)C(=O)N[C@@H](CCC(N)=O)C(=O)N[C@@H](Cc1ccccc1)C(=O)N[C@H](C(=O)N[C@@H](CC(=O)O)C(=O)N[C@@H](CCCCN)C(=O)N[C@@H](Cc1ccccc1)C(=O)N[C@@H](CCCCN)C(=O)N[C@@H](CC(=O)O)C(=O)N[C@@H](CC(N)=O)C(=O)N[C@H](C(=O)N[C@@H](C)C(=O)N1CCC[C@H]1C(=O)N[C@@H](CCCNC(=N)N)C(=O)N[C@@H](CO)C(=O)N[C@@H](CCCCN)C(=O)N[C@H](C(=O)N[C@@H](CO)C(=O)N1CCC[C@H]1C(=O)N[C@@H](CCC(N)=O)C(=O)N[C@H](C(=O)N1C[C@H](O)C[C@H]1C(N)=O)[C@@H](C)O)[C@@H](C)CC)C(C)C)[C@@H](C)O` [compound 193] (H-GCRTGTCTVQRLAHQIHQFTDKFKDNVAPRSKISPQT[Hyp]-NH2; disulfide 2-7; N-terminus assumed) are 2.700% and > 5000 nM.
For `CC[C@H](C)[C@H](NC(=O)[C@H](CCC(N)=O)NC(=O)[C@H](Cc1c[nH]cn1)NC(=O)[C@H](C)NC(=O)[C@H](CC(C)C)NC(=O)[C@H](CCCNC(=N)N)NC(=O)[C@H](CCC(N)=O)NC(=O)[C@@H](NC(=O)[C@@H](NC(=O)[C@@H]1CSSC[C@H](NC(=O)CN)C(=O)N[C@@H](CCCNC(=N)N)C(=O)N[C@@H]([C@@H](C)O)C(=O)NCC(=O)N[C@@H]([C@@H](C)O)C(=O)N1)[C@@H](C)O)C(C)C)C(=O)N[C@@H](C)C(=O)N[C@@H](CCC(N)=O)C(=O)N[C@@H](Cc1ccccc1)C(=O)N[C@H](C(=O)N[C@@H](CC(=O)O)C(=O)N[C@@H](CCCCN)C(=O)N[C@@H](Cc1ccccc1)C(=O)N[C@@H](CCCCN)C(=O)N[C@@H](CC(=O)O)C(=O)N[C@@H](CC(N)=O)C(=O)N[C@H](C(=O)N[C@@H](C)C(=O)N1CCC[C@H]1C(=O)N[C@@H](CCCNC(=N)N)C(=O)N[C@@H](CO)C(=O)N[C@@H](CCCCN)C(=O)N[C@H](C(=O)N[C@@H](CO)C(=O)N1CCC[C@H]1C(=O)N[C@@H](CCC(N)=O)C(=O)N[C@H](C(=O)N1C[C@H](O)C[C@H]1C(N)=O)[C@@H](C)O)[C@@H](C)CC)C(C)C)[C@@H](C)O` [compound 196] (H-GCRTGTCTVQRLAHQIAQFTDKFKDNVAPRSKISPQT[Hyp]-NH2; disulfide 2-7; N-terminus assumed), the “Max ThT signal (%)” value in data set [1] stood at 0.500%. The EC50 at hAM1 receptor was > 5000 nM.
On to `CC[C@H](C)[C@H](NC(=O)[C@H](CCCCN)NC(=O)[C@@H](NC(=O)[C@H](CCCNC(=N)N)NC(=O)[C@@H]1CCCN1C(=O)[C@H](C)NC(=O)[C@@H](NC(=O)[C@H](CC(N)=O)NC(=O)[C@H](CC(=O)O)NC(=O)[C@H](CCCCN)NC(=O)[C@H](CC(=O)O)NC(=O)[C@H](CCCCN)NC(=O)[C@H](CC(=O)O)NC(=O)[C@@H](NC(=O)[C@H](Cc1ccccc1)NC(=O)[C@H](CCC(N)=O)NC(=O)[C@H](Cc1ccc(O)cc1)NC(=O)[C@H](CC(C)C)NC(=O)[C@H](Cc1ccccc1)NC(=O)[C@H](Cc1c[nH]cn1)NC(=O)[C@H](C)NC(=O)[C@H](CC(C)C)NC(=O)[C@H](CCCNC(=N)N)NC(=O)[C@H](CCC(N)=O)NC(=O)[C@@H](NC(=O)[C@@H](NC(=O)[C@@H]1CSSC[C@H](NC(=O)CN)C(=O)N[C@@H](CCCNC(=N)N)C(=O)N[C@@H](Cc2ccccc2)C(=O)NCC(=O)N[C@@H]([C@@H](C)O)C(=O)N1)[C@@H](C)O)C(C)C)[C@@H](C)O)C(C)C)[C@@H](C)O)C(=O)NCC(=O)N[C@@H](CO)C(=O)N[C@@H](CC(N)=O)C(=O)NCC(=O)N[C@@H](Cc1ccc(O)cc1)C(N)=O` [compound 376] (H-GCRFGTCTVQRLAHFLYQFTDKDKDNVAPRTKIGSNGY-NH2; disulfide 2-7; N-terminus assumed), for which the values for the EC50 at hAM1 receptor and at hAMY3 receptor were 12 nM and 0.022 nM, respectively.
